Laboratory results published in patent US20010048926A1, “SYNTHETIC PEPTIDE VACCINES FOR DENTAL CARIES” (priority 1992, published 2001).

Assays:
[1] = system: S. sobrinus GTF; assay: ELISA of serum IgG antibody reacting with intact S. sobrinus GTF; type: in vivo; details: 63 day sera, n=4-5 per group; FIG. 3
Description: (§1) Glucosyltransferases: Glucosyltransferases (GTF) from S. sobrinus strain 6715 were purified from culture supernatants after bacterial growth in glucose-containing defined media, as described in Taubman et al. (J. Oral Pathol. 17:466-470 (1988)). Enzymes were separated from other culture supernatant proteins by affinity chromatography on Sephadex G-100 (Pharmacia Fine Chemicals), using 6M guanidine HCl as the eluting solvent. GTFs were then obtained from the guanidine HCl eluate by FPLC chromatography on Superose 6 (Pharmacia) using 6M guanidine for elution. GTF preparations contained a mixture of GTF-I, GTF-Sd, and GTF-Si.
(§2) Immunogenicity of Peptides: Sprague Dawley CD strain 43 day-old male rats (Charles River Laboratories) were used for injection. Six groups of 4-5 rats were injected subcutaneously in the vicinity of the salivary glands with 50 μg each of GGY, AND, SAND or CAT peptide constructs, 10 μg of GTF, or sham-immunized with buffer alone. The initial injection included complete Freund adjuvant (CFA; Difco); two subsequent injections at 21-day intervals included incomplete Freund adjuvant. Animals were bled prior to injection and 14-21 days after each injection. Serum from coagulated and centrifuged blood was stored frozen at −20° C. until use.
ELISA: Serum IgG and salivary IgA antibodies were tested by enzyme-linked immunosorbent assay (ELISA). Polystyrene microtiter plates (Flow Laboratories) were coated with […] of each peptide construct or 0.5 μg of S. sobrinus GTF. Antibody activity was then measured by incubation with 1:100 to 1:10^6 dilutions of sera, or 1:4 to 1:32 dilutions of saliva. Plates were then developed for IgG antibody rabbit anti-rat IgG followed in sequence by alkaline phosphatase goat anti-rabbit IgG (Biosource Inc.) and p-nitrophenylphosphate (Sigma). A mouse monoclonal reagent to rat α chain (Zymed, South San Francisco, Calif.) was used with biotinylated goat anti-mouse IgG (TAGO, Inc., Burlingame, Calif.) and avidin-alkaline phosphatase (Cappel) to reveal levels of salivary IgA antibody to peptides. Reactivity was recorded as absorbance (A405 nm) in a micro plate reader (Biotek Instruments). Data are reported as absorbance (A405 nm), reciprocal titer, or as ELISA units (EU) which were calculated relative to the levels of appropriate reference sera or salivas from Sprague Dawley rats thrice immunized with the respective peptide construct. Dilutions of 1:12,800 and 1:6,400 (A405 nm approximately 1.0) were considered 100 EU for serum IgG to the GGY and AND constructs, respectively. Dilutions of 1:32 were considered 100 EU for salivary IgA to both GGY and AND constructs.

[2] = biological target: T1, AND peptide construct (Streptococcus mutans serotype c, UniProt P08987); assay: Cross-reactivity ELISA, plates coated with AND peptide construct; type: binding; details: day 63 sera; FIG. 4
T1 construct: GGY and AND were 19-mer peptides; purchased Applied Diagnostics, Foster City, Calif; host or cells: chemical solid phase synthesis
Method: as §2
ELISA: Serum IgG and salivary IgA antibodies were tested by enzyme-linked immunosorbent assay (ELISA). Polystyrene microtiter plates (Flow Laboratories) were coated with […] of each peptide construct or 0.5 μg of S. sobrinus GTF. Antibody activity was then measured by incubation with 1:100 to 1:10^6 dilutions of sera, or 1:4 to 1:32 dilutions of saliva. […] Reactivity was recorded as absorbance (A405 nm) in a micro plate reader (Biotek Instruments). Data are reported as absorbance (A405 nm), reciprocal titer, or as ELISA units (EU) which were calculated relative to the levels of appropriate reference sera or salivas from Sprague Dawley rats thrice immunized with the respective peptide construct. […]

[3] = system: S. sobrinus GTF; assay: Antibody inhibition of glucan synthesis (filter assay, 14C glucose incorporation into water-insoluble glucan); type: biochemical, S. sobrinus strain 6715
Description: as §1
Antibody Inhibition of Glucan Synthesis: Selected rat sera were evaluated for their ability to inhibit glucan synthesis catalyzed by S. sobrinus GTF, using a filter assay. Ten μl volumes of sera (1:100 dilutions in 0.02M sodium phosphate buffered saline and 0.02% sodium azide [PBSA], pH 6.5) were preincubated with the respective GTF for 1 hour at 37° C. in a total volume of 0.04 ml PBSA. Then 1.7 mg sucrose, 44 nCi of [^14C-glucose]-sucrose (approximately 100,000 cpm) were added in 0.2 ml PESA in the presence of 37 μg of dextran T10 (Pharmacia). Incubation proceeded for 18 hours at 37° C., after which water-insoluble glucan was collected on Whatman GF/F glass fiber filters, washed with PBSA, and radioactivity determined as described in Smith et al. (Infect. Immunity 62:5470-5476 (1994)).

[4] = system: S. mutans SJ32; assay: Protection experiments: caries assessment (modified Keyes method) after S. mutans infection; type: in vivo, Sprague-Dawley rats
Description: Experimental Protocol for Protection Experiments: Animals used in the present experiments were derived from germ-free Sprague-Dawley rats that had been reared in the isolator facility of Charles River Laboratories, Wilmington, Mass. (Area 051). […] These rats served as initial breeding stock for dams used in these experiments and were regularly monitored for absence of mutans streptococci. The progeny of the dams used for the present experiments were weaned at approximately 21 days and were subsequently fed high sucrose Diet 2000.
Two experiments were performed. Groups (n=11-12) of 23-26 day-old rats were subcutaneously (sc) injected in the salivary gland vicinity with (experiment 1) GGY (50 μg), AND (50 μg) or GTF(10 μg), or phosphate buffered saline (control animals), or (experiment 2) GGY (50 ;μg) or PBS. Each antigen was incorporated with complete Freund adjuvant in both experiments. Eight (experiment 1) or 14 (experiment 2) days later, rats were reinjected with PBS or with the same antigen and dose in incomplete Freund adjuvant. Six (experiment 1) or 12 (experiment 2) days after the second injection, animals were bled from the tail vein, and saliva was collected after injection of pilocarpine (1.0 mg/100 g body weight). Fourteen (experiment 1) or 11 (experiment 2) days after the second injection, all rats were orally infected with approximately 10^8 S. mutans for 3 consecutive days. Both experiments were terminated 63 days after initial infection.
Caries assessment: The extent and depth of carious lesions in all rat molar teeth (caries score) were microscopically evaluated by a modified Keyes method as previously described (Taubman et al., J. Immunol. 118:710-720 (1977)). Caries scores were determined separately on smooth and on sulcal dental surfaces.

GGYEFLLANDVDNSNPVVQ
IgG antibody reactivity with intact S. sobrinus GTF [1]: significant reactivity with GTF
reaction of serum IgG antibody with the AND peptide construct [2]: significant reaction
inhibition of formation of water-insoluble glucan from sucrose by S. sobrinus GTF (in words) ([3]; 63 day sera from injected rats, AND p<0.01, FIG. 5): more variable
inhibition of GTF activity ([3]; one rat serum, 63 day, relative to mean of sham sera): 35%
mean and median total, smooth surface, and occlusal caries scores vs sham-injected group ([4]; both experiments): lower than the respective scores of the sham-injected group
Total molar caries scores vs sham-injected groups ([4]; both experiments, p<0.05): significantly lower
smooth surface caries vs sham-injected group ([4]; experiment 1, GGY p<0.032, GTF p<0.045): Protection was most evident on smooth surfaces
smooth surface caries vs sham-injected group ([4]; experiment 2, p<0.027): Protection was most evident on smooth surfaces
protection after infection of rats with cariogenic S. mutans ([4]; summary statement): significant protection
